Key:
HSF-PLA2 = biological target: T1, HSF-PLA2 (Homo sapiens, UniProt P14555); assay: Assay for Inhibition of HSF-PLA2 In Vitro; format: biochemical; settings: for IC50: read-out: Inhib of HSF-PLA2 IC50
T1 construct: extracellular enzyme obtained from human synovial fluid (HSF-PLA2); from tissue; host or cells: pooled human synovial fluid, added at 0.1% (v/v)
T1 sequence (P14555 21-144): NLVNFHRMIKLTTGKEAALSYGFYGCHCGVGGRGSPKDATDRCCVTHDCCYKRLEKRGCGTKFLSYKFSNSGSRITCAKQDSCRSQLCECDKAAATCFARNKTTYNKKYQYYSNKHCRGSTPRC
Outline: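 Extracellular PLA2 isolated from human synovial fluid, incubated 30 min at 37 °C with 14C-labelled phospholipid substrate in duplicate. Lipids were chloroform-extracted, and released 14C-oleic acid was separated from substrate by silica TLC; a no-enzyme control was run in each experiment.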

PLA2 Rat Paw Edema = assay: Phospholipase A2 Rat Paw Edema; format: in vivo, Lewis rats; settings: Rattus norvegicus; 2 hr; 30 mg/kg; read-out: % Inhib of PLA2 Rat Paw Edema 2 hr (30 mg/kg)
Outline: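 Lewis rats (~200 g, n=7) dosed i.p. (in DMSO) or orally (in Labrafil M-1944CS) 1 h before subplantar injection of 5 ug Naja naja PLA2 into right hind paw. Paw volume by plethysmometry at 0.5, 2 and 4 hr minus baseline; % change versus vehicle, Student's t-test.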

[1] = test system: Croton Oil Mouse Ear Edema; assay: Croton Oil Mouse Ear Edema Test; format: in vivo, CD-1 mice; settings: topical, coapplied, 6 hours
[2] = test system: Naja naja snake venom PLA2 (SV-PLA2); assay: Assay for inhibition of snake venom PLA2 (SV-PLA2) in vitro; format: biochemical; settings: read-out: Inhib of SV-PLA2 IC50
Experimental: ASSAY FOR INHIBITION OF SNAKE VENOM PLA2 (SV-PLA2) IN VITRO
Several representative compounds of the invention were also tested as inhibitors of Naja naja snake venom PLA2 (SV-PLA2). The assay employed in this study was the spectrophotometric method described by: C. Vigo, G. P. Lewis and P. J. Piper in Biochemical Pharmacology, 29:623-627 (1983), which was modified as described by: A. F. Welton, L. D. Tobias, C. Fiedler-Nagy, W. Anderson, W. Hope, K. Meyers and J. W. Coffey in "Plant Flavonoids in Biology and Medicine: Biochemical, Pharmacological and Structure-Activity Relationships", p 231-242, (1986) Alan R. Liss, Inc. The PLA2 paw edema model, (data in Table I) is initiated by injection of SV-PLA2.

[3] = test system: adjuvant arthritis model in rats; assay: Established Adjuvant Arthritis Test; format: in vivo
Experimental: Established Adjuvant Arthritis Test
Representative compounds of the invention were tested in the standard adjuvant arthritis model in rats, induced by Freunds complete adjuvant, as described by C. E. Brinckerhoff, J. W. Coffey and A. C. Sullivan, Science, 221, p. 756-758 (1983).

[4] = test system: rat carrageenan-induced paw edema; assay: Rat Carrageenan Paw Edema; format: in vivo, Lewis rats; settings: 2 h; for inhibition in vivo at 30 mg/kg: 30 mg/kg ip
Experimental: Rat Carrageenan Paw Edema
Representative compounds of the invention were tested in rat carrageenan-induced paw edema to determine their ability to inhibit this acute inflammatory response. Test compounds are administered intraperitoneally or orally to groups of seven Lewis rats (≈200 gm) 1 hr prior to carrageenan administration. The test compounds are dissolved in dimethyl sulfoxide for intraperitoneal administration and dissolved or suspended in Labrafil […] for oral administration. At 0 hour, 0.1 mL of 1% carrageenan dissolved in pyrogen free saline is injected subplantarly into the right hind paw to elicit the inflammatory response. The volume (in mL) of the right hind paw is measured by immersion of the paw to the level of the lateral malleolus in an aqueous plethysmometer immediately prior to the injection of carrageenan and then at 1, 2 and 4 hr after carrageenan injection. The paw edema is calculated by substracting the zero time reading from the readings taken after injection. The percent change of the edema volume from the vehicle treated control is calculated to determine the activity of the test compound. Statistical analysis of the mean paw edema values of the control versus the treated groups are performed using Student's t-test.

[5] = read-out: Inhib of HSF-PLA2, % inhibition

SMILES | IC50 (HSF-PLA2) [nM] | inhibition in vivo at 30 mg/kg (PLA2 Rat Paw Edema) [%] | % Inhib of Croton Oil Mouse Ear Edema (1 mg) [1] [%] | IC50 [2] [nM] | Change in Paw Volume (mL) Treated ([3]; 30 mg/kg ip) [mL] | inhibition in vivo at 30 mg/kg [4] [%] | Change in Paw Volume (mL) Treated ([3]; 10 mg/kg ip) [mL] | inhibition at 1 µM (HSF-PLA2; [5]) [%] | inhibition in vivo at 10 mg/kg ([4]; 10 mg/kg ip) [%] | inhibition at 5 µM (HSF-PLA2; (5 μM), read-out: Inhib of HSF-PLA2, % inhibition) [%]
CCCCCCCCCCOc1cc(OCCCCCCCCCC)cc(N(CC(=O)O)CC(=O)O)c1 [Example 6, N-(Carboxymethyl)-N-[3,5-bis(decyloxy)phenyl]glycine] | 240 | 45 | 13 | 17 | -0.04 ± 0.24 | – | – | – | – | –
CCCCCCCCOc1cc(OCCCCCCCC)cc(N(CC(=O)O)CC(=O)O)c1 [Example 6c, N-(carboxymethyl)-N-[3,5-bis(octyloxy)phenyl]glycine] | 400 | 7 | 0 | 22 | – | – | – | – | – | –
CCCCCCCCCCCCOc1cc(OCCCCCCCCCCCC)cc(N(CC(=O)O)CC(=O)O)c1 [Example 6d, N-(carboxymethyl)-N-[3,5-bis(dodecyloxy)phenyl]glycine] | 50 | – | 21 | 170 | – | – | – | – | – | –
CCCCCCCCCCOc1cccc(N(CC(=O)O)CC(=O)O)c1 [Example 36a, N-(carboxymethyl)-N-[3-(decyloxy)phenyl]glycine] | 2900 | 35 | – | – | – | 47 | – | – | – | –
CCCCCCCCc1ccc(N(CC(=O)O)CC(=O)O)cc1 [Example 39c, N-(carboxymethyl)-N-(4-octylphenyl)glycine] | 1700 | – | – | 66 | – | – | – | – | – | –
CCCCCCCCCCCCCCCCCCOc1cc(OCCCOc2ccccc2)cc(N(CC(=O)O)CC(=O)O)c1 [Example 58, N-(Carboxymethyl)-N-[3-(octadecyloxy)-5-(3-phenoxypropoxy)phenyl]glycine] | 60 | 36 | 78 | – | – | 29 | 0.37 ± 0.14 | – | – | –
CCCCCCCCCCCCCCCCCCOc1cc(OCCCOc2cccc([N+](=O)[O-])c2)cc(N(CC(=O)O)CC(=O)O)c1 [Example 58m, N-(carboxymethyl)-N-[3-[3-(3-nitrophenoxy)propoxy]-5-(octadecyloxy)phenyl]glycine] | – | 52 | 60 | – | – | – | 0.40 ± 0.13 | 79 | 61 | –
CCCCCCCCCCCCCCCCCCOc1cc(OCCCOc2cccc(N)c2)cc(N(CC(=O)O)CC(=O)O)c1 [Example 58n, N-(carboxymethyl)-N-[3-[3-(3-aminophenoxy)propoxy]-5-(octadecyloxy)phenyl]glycine] | 130 | 4 | 64 | – | – | 65 | 0.23 ± 0.12 | – | – | –
CCCCCCCCCCCCCCCCCCOc1cc(OCCCCC(=O)OC)cc(N(CC(=O)O)CC(=O)O)c1 [Example 64] | 60 | 61 | 87 | – | – | 69 | 0.65 ± 0.12 | – | – | –
CCCCCCCCCCCCCCCCCCOc1cc(C(=O)O)cc(N(CC(=O)O)CC(=O)O)c1 [Example 70, N-[3-Carboxy-5-(octadecyloxy)phenyl]-N-(carboxymethyl)glycine] | 1000 | 45 | 0 | – | – | – | 0.30 ± 0.09 | – | – | –
CCCCCCCCCCCCCCCCCCOc1cc(OCCCP(=O)(OCC)OCC)cc(N(CC(=O)O)CC(=O)O)c1 [Example 88, N-(Carboxymethyl)-N-[3-[3-(diethoxyphosphinyl)propoxy]-5-(octadecyloxy)phenyl]glycine] | 400 | 46 | 43 | – | -0.90 ± 0.11 | 57 | – | – | – | –
CCCCCCCCCCCCCCCCCCOc1cc(OCCCP(=O)(O)OCC)cc(N(CC(=O)O)CC(=O)O)c1 [Example 89] | – | 45 | – | – | -0.68 ± 0.08 | – | – | 31 | – | –
CCCCCCCCCCCCCCCCCCOc1cc(OCCCOc2cccc(Br)c2)cc(N(CC(=O)O)CC(=O)O)c1 [Example 108, N-(Carboxymethyl)-N-3-[3-[3-(bromophenoxy)propoxy]-5-(octadecyloxy)phenyl]glycine] | – | 12 | 34 | – | – | 33 | – | 92 | – | –
CCCCCCCCCCCCCCCCCCOc1cc(OCCCCCc2cccc(O)c2O)cc(N(CC(=O)O)CC(=O)O)c1 [Example 146] | 200 | 74 | 18 | – | – | 55 | – | – | – | –
CCCCCCCCCCCCCCCCCCOc1cc(OCCOCCOCCOCC)cc(N(CC(=O)O)CC(=O)O)c1 [Example 151] | – | 43 | 54 | – | – | – | 0.28 ± 0.16 | 100 | – | –
CCCCCCCCCCCCCCCCCCOc1cc(OCCCCc2ccc3cc(O)c(O)cc3c2)cc(N(CC(=O)O)CC(=O)O)c1 [Example 154, N-(Carboxymethyl)-N-[3-[4-(2,3-dihydroxy-6-naphthalenyl)butoxy]-5-(octadecyloxy)phenyl]glycine] | – | 78 | – | – | – | 70 | – | 96 | – | –
CCCCCCCCCCCCCCCCCCOc1cc(OCCCOc2ccc([S+](C)[O-])cc2)cc(N(CC(=O)O)CC(=O)O)c1 (centres unmarked) [Example 159] | – | 78 | 59 | – | – | 44 | – | 100 | – | –
CCCCCCCCCCCCCCCCCCOc1cc(OCCCOc2ccc(S(C)(=O)=O)cc2)cc(N(CC(=O)O)CC(=O)O)c1 [Example 161, N-(Carboxymethyl)-N-[3-[3-[4-(methylsulfonyl)phenoxy]propoxy]-5-(octadecyloxy)phenyl]glycine] | – | 66 | 87 | – | – | 56 | – | 100 | – | –
CCCCCCCCCCCCCCCCCCOc1cc(NS(=O)(=O)C(F)(F)F)cc(N(CC(=O)O)CC(=O)O)c1 [Example 162, N-(Carboxymethyl)-N-[3-(octadecyloxy)-5-[[(trifluoromethyl)sulfonyl]amino]phenyl]glycine] | – | 65 | 79 | – | – | 69 | – | 82 | – | –
CCCCCCCCCCN(CCCCCCCCCC)C(=O)c1cccc(N(CC(=O)O)CC(=O)O)c1 [Example 174] | – | 46 | 29 | – | – | – | – | – | – | 74
CCCCCCCCCCCCCCCCCCOc1cc(OCCCOc2ccc(C(C)(C)C)cc2)cc(N(CC(=O)O)CC(=O)O)c1 [Example 177, N-(Carboxymethyl)-N-[3-[3-[4-(1,1-dimethylethyl)phenoxy]propoxy]-5-(octadecyloxy)phenyl]glycine] | – | 41 | 22 | – | – | 57 | – | 95 | – | –

From US5324747A, “N-substituted anilines, inhibitors of phospholipases A2” (Hoffmann-La Roche Inc., priority 1992, dated 1994)
